Common to all, as to type: cell-based
One experiment addresses T1, human GIPR (Homo sapiens, UniProt P48546).
T1 construct: host or cells: COS-7
T1 sequence (P48546 22-466): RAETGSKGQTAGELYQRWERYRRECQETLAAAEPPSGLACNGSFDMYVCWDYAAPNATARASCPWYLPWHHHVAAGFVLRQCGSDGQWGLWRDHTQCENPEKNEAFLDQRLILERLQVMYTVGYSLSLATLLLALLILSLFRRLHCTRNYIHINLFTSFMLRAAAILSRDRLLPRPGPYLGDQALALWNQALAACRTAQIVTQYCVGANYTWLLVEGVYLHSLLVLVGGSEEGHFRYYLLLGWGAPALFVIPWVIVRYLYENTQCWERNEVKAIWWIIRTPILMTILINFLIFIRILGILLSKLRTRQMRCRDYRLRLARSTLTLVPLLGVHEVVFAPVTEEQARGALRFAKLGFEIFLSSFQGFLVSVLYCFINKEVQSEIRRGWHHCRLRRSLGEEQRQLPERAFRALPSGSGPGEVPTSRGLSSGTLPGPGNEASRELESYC
The experiment is described as follows: cAMP assay (HitHunter) in transiently transfected COS-7 cells expressing human GIPR. To be noted: for Emax: COS-7, normalized to highest concentration of the endogenous ligand, read-out: Efficacy GIPR (Emax). As to the method: (§1) The next day the assay was initiated by washing with HEPES buffered saline (HBS) and followed by an incubation step with assay buffer (HBS added 1 mM isobutyl-1-methylxanthine (IBMX)) for 30 min at 37° C. The ligands were then added and incubated for an additional 30 min at 37° C. After ligand incubation, the HitHunter® CAMP assay (Eurofins DiscoverX, Fremont, […] USA) was carried out according to the manufacturer's instructions. […] The potencies (EC50 values) were determined by nonlinear regression using GraphPad Prism 9 (San Diego, California, USA). Sigmoid curves were fitted logistically. The efficacies (Emax values) were determined by normalization to the highest concentration applied of the endogenous ligand for each receptor.

A further experiment addresses T2, human GLP-2R (Homo sapiens, UniProt O95838).
T2 construct: host or cells: COS-7
T2 sequence (O95838 1-553): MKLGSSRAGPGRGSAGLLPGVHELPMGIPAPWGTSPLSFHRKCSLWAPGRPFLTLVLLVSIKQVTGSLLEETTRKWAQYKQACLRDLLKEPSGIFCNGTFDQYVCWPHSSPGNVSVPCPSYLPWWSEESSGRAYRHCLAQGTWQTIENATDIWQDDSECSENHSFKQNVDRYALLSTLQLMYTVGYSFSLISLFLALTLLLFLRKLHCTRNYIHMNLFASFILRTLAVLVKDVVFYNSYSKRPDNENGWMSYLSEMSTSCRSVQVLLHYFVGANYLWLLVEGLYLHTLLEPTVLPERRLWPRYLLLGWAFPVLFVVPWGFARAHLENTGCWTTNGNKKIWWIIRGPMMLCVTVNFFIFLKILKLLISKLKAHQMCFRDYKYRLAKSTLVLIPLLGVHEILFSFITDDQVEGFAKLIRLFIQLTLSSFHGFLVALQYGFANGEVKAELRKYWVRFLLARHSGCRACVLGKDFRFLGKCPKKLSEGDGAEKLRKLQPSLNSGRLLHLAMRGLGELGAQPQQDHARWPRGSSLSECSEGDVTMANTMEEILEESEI
Put plainly: cAMP assay (HitHunter) in transiently transfected COS-7 cells expressing human GLP-2R. To be noted: for Emax: COS-7, normalized to highest concentration of the endogenous ligand, read-out: Efficacy GLP-2R (Emax); for EC50: cAMP, COS-7 cells, human GLP-2R, read-out: EC50 (nM) GLP-2R. The procedure: as §1

For a further experiment, the target named is T3, human GLP-1R (Homo sapiens, UniProt P43220).
T3 construct: host or cells: COS-7
T3 sequence (P43220 24-463): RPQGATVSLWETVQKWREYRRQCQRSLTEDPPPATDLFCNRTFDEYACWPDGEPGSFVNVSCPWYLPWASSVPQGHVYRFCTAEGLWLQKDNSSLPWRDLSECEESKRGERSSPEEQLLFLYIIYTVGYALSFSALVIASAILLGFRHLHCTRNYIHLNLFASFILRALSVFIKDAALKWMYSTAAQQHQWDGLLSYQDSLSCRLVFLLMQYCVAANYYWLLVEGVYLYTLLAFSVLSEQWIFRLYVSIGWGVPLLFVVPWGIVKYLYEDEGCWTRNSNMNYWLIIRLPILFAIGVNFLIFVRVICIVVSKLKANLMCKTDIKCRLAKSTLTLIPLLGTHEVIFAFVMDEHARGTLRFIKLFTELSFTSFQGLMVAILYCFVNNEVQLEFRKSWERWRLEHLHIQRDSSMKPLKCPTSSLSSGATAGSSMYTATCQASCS
Put plainly: cAMP assay (HitHunter) in transiently transfected COS-7 cells expressing human GLP-1R. To be noted: for Emax: COS-7, normalized to highest concentration of the endogenous ligand, read-out: Efficacy GLP-1R (Emax). The procedure: as §1
A general note: Cyclic AMP is a second messenger, typically raised through Gs and lowered through Gi signalling.

The next experiment deals with T4, human SNAP-tagged GIPR (Homo sapiens, UniProt P48546).
T4 construct: host or cells: HEK293A
T4 sequence (P48546 22-466): T1 sequence (P48546 22-466)
Put plainly: Receptor internalization assay, HEK293A cells expressing human SNAP-tagged GIPR. To be noted: AUC of sigmoid curves up to 1 μM; 60 minutes at 37° C.

Data on five molecules can be found in patent US20250304644A1, “PEPTIDES TRIPLE AGONISTS OF GIP, GLP-1 AND GLP-2” (BAINAN BIOTECH APS, priority 2021, published 2025).

Where a SMILES comes first, the peptide text is derived from it. [ ]: non-standard residue; d: D form. The star is where a group is joined. Decanoyl = CCCCCCCCCC(=O)*; Aib = CC(C)(N)C(=O)O

As usually defined, the Emax is the greatest response seen or fitted, relative to the assay's reference. Usually EC50 stands for the concentration that produces a half-maximal response. Take `CCCCCCCCCC(=O)NCCCC[C@H](NC(=O)[C@@H](NC(=O)[C@@H](NC(=O)[C@H](CCCCN)NC(=O)[C@@H](NC(=O)[C@H](CCC(N)=O)NC(=O)[C@@H](NC(=O)[C@H](CC(C)C)NC(=O)[C@H](Cc1c[nH]c2ccccc12)NC(=O)[C@H](CC(N)=O)NC(=O)[C@@H](NC(=O)[C@H](Cc1ccccc1)NC(=O)[C@H](CC(=O)O)NC(=O)[C@H](CCCNC(=N)N)NC(=O)[C@H](C)NC(=O)[C@H](C)NC(=O)[C@H](CC(C)C)NC(=O)[C@H](CC(N)=O)NC(=O)[C@H](CC(=O)O)NC(=O)[C@H](CC(C)C)NC(=O)[C@@H](NC(=O)[C@@H](NC(=O)[C@H](CO)NC(=O)[C@H](Cc1ccc(O)cc1)NC(=O)[C@H](CC(=O)O)NC(=O)[C@H](CO)NC(=O)[C@@H](NC(=O)[C@H](Cc1ccccc1)NC(=O)[C@@H](NC(=O)CNC(=O)[C@H](CC(=O)O)NC(=O)C(C)(C)NC(=O)[C@@H](N)Cc1c[nH]cn1)[C@@H](C)O)[C@@H](C)CC)[C@@H](C)O)[C@@H](C)CC)[C@@H](C)CC)[C@@H](C)CC)[C@@H](C)O)[C@@H](C)CC)[C@@H](C)O)C(N)=O` [Compound 1]: the maximal response (Emax) at human GIPR was 93%; at human GLP-2R, 96%; at human GLP-1R it was 101%. At human GLP-2R, the EC50 is 2 nM. On human SNAP-tagged GIPR, the “Absolute hGIPR internalization (AUC)” value came out at 5.3.
Take `CCCCCCCCCC(=O)NCCCC[C@H](NC(=O)[C@@H](NC(=O)[C@@H](NC(=O)[C@H](CCCCN)NC(=O)[C@@H](NC(=O)[C@H](CCC(N)=O)NC(=O)[C@@H](NC(=O)[C@H](CC(C)C)NC(=O)[C@H](Cc1c[nH]c2ccccc12)NC(=O)[C@H](CC(N)=O)NC(=O)[C@@H](NC(=O)[C@H](Cc1ccccc1)NC(=O)[C@H](CC(=O)O)NC(=O)[C@H](CCCNC(=N)N)NC(=O)[C@H](C)NC(=O)[C@H](C)NC(=O)[C@H](CC(C)C)NC(=O)[C@H](CC(N)=O)NC(=O)[C@H](CC(=O)O)NC(=O)[C@H](CC(C)C)NC(=O)[C@H](CCC(=O)O)NC(=O)[C@@H](NC(=O)[C@H](CO)NC(=O)[C@H](Cc1ccc(O)cc1)NC(=O)[C@H](CC(=O)O)NC(=O)[C@H](CO)NC(=O)[C@@H](NC(=O)[C@H](Cc1ccccc1)NC(=O)[C@@H](NC(=O)CNC(=O)[C@H](CC(=O)O)NC(=O)C(C)(C)NC(=O)[C@@H](N)Cc1c[nH]cn1)[C@@H](C)O)[C@@H](C)CC)[C@@H](C)O)[C@@H](C)CC)[C@@H](C)CC)[C@@H](C)O)[C@@H](C)CC)[C@@H](C)O)C(N)=O` [Compound 13] (H-H[Aib]DGTFISDYSTELDNLAARDFINWLIQTKITK(Decanoyl)-NH2): the maximum response (Emax) on human GIPR amounted to 117%; on human GLP-2R, 86%; on human GLP-1R, 85%. Also, the EC50 at human GLP-2R turned out to be 25.1 nM; on human GLP-1R (cAMP, COS-7 cells, human GLP-1R, read-out: EC50 (nM) GLP-1R), 25.1 nM.
Turning to `CCCCCCCCCC(=O)NCCCC[C@H](NC(=O)[C@H](CCCCN)NC(=O)CNC(=O)[C@H](CCCCN)NC(=O)[C@@H](NC(=O)[C@H](CCC(N)=O)NC(=O)[C@@H](NC(=O)[C@H](CC(C)C)NC(=O)[C@H](Cc1c[nH]c2ccccc12)NC(=O)[C@H](CC(N)=O)NC(=O)[C@@H](NC(=O)[C@H](Cc1ccccc1)NC(=O)[C@H](CC(=O)O)NC(=O)[C@H](CCCNC(=N)N)NC(=O)[C@H](C)NC(=O)[C@H](C)NC(=O)[C@H](CC(C)C)NC(=O)[C@H](CC(N)=O)NC(=O)[C@H](CC(=O)O)NC(=O)[C@H](CC(C)C)NC(=O)[C@@H](NC(=O)[C@@H](NC(=O)[C@H](CO)NC(=O)[C@H](Cc1ccc(O)cc1)NC(=O)[C@H](CC(=O)O)NC(=O)[C@H](CO)NC(=O)[C@@H](NC(=O)[C@H](Cc1ccccc1)NC(=O)[C@@H](NC(=O)CNC(=O)[C@H](CC(=O)O)NC(=O)C(C)(C)NC(=O)[C@@H](N)Cc1c[nH]cn1)[C@@H](C)O)[C@@H](C)CC)[C@@H](C)O)[C@@H](C)CC)[C@@H](C)CC)[C@@H](C)CC)[C@@H](C)O)C(N)=O` [Compound 14] (H-H[Aib]DGTFISDYSTILDNLAARDFINWLIQTKGKK(Decanoyl)-NH2), the Emax came out at 91% on human GIPR, 92% on human GLP-2R and 96% at human GLP-1R.
For the molecule `CCCCCCCCCC(=O)NCCCC[C@H](NC(=O)[C@@H](NC(=O)[C@@H](NC(=O)[C@H](CCCCN)NC(=O)[C@@H](NC(=O)[C@H](CCC(N)=O)NC(=O)[C@@H](NC(=O)[C@H](CC(C)C)NC(=O)[C@H](Cc1c[nH]c2ccccc12)NC(=O)[C@H](CC(N)=O)NC(=O)[C@@H](NC(=O)[C@H](Cc1ccccc1)NC(=O)[C@H](CC(=O)O)NC(=O)[C@H](CCCNC(=N)N)NC(=O)[C@H](C)NC(=O)[C@H](C)NC(=O)[C@H](CC(C)C)NC(=O)[C@H](CC(N)=O)NC(=O)[C@H](CC(=O)O)NC(=O)[C@H](CC(C)C)NC(=O)[C@@H](NC(=O)[C@@H](NC(=O)[C@H](CO)NC(=O)[C@H](Cc1ccc(O)cc1)NC(=O)[C@H](CC(=O)O)NC(=O)[C@H](CO)NC(=O)[C@@H](NC(=O)[C@H](Cc1ccccc1)NC(=O)[C@@H](NC(=O)CNC(=O)[C@H](CC(=O)O)NC(=O)C(C)(C)NC(=O)[C@@H](N)Cc1ccc(O)cc1)[C@@H](C)O)[C@@H](C)CC)[C@@H](C)O)[C@@H](C)CC)[C@@H](C)CC)[C@@H](C)CC)[C@@H](C)O)[C@@H](C)CC)[C@@H](C)O)C(N)=O` [Compound 16] (H-Y[Aib]DGTFISDYSTILDNLAARDFINWLIQTKITK(Decanoyl)-NH2; N-terminus assumed), the Emax at human GIPR amounted to 99%; on human GLP-2R, 93%; at human GLP-1R, 59%. At human GIPR (cAMP, COS-7 cells, human GIPR), this molecule came in with a concentration giving a half-maximal response (EC50) of 1 nM.
Take `CCCCCCCCCC(=O)N[C@@H](CCC(=O)NCCCC[C@H](NC(=O)[C@@H](NC(=O)[C@@H](NC(=O)[C@H](CCCCN)NC(=O)[C@@H](NC(=O)[C@H](CCC(N)=O)NC(=O)[C@@H](NC(=O)[C@H](CC(C)C)NC(=O)[C@H](Cc1c[nH]c2ccccc12)NC(=O)[C@H](CC(N)=O)NC(=O)[C@@H](NC(=O)[C@H](Cc1ccccc1)NC(=O)[C@H](CC(=O)O)NC(=O)[C@H](CCCNC(=N)N)NC(=O)[C@H](C)NC(=O)[C@H](C)NC(=O)[C@H](CC(C)C)NC(=O)[C@H](CC(N)=O)NC(=O)[C@H](CC(=O)O)NC(=O)[C@H](CC(C)C)NC(=O)[C@@H](NC(=O)[C@@H](NC(=O)[C@H](CO)NC(=O)[C@H](Cc1ccc(O)cc1)NC(=O)[C@H](CC(=O)O)NC(=O)[C@H](CO)NC(=O)[C@@H](NC(=O)[C@H](Cc1ccccc1)NC(=O)[C@@H](NC(=O)CNC(=O)[C@H](CC(=O)O)NC(=O)C(C)(C)NC(=O)[C@@H](N)Cc1c[nH]cn1)[C@@H](C)O)[C@@H](C)CC)[C@@H](C)O)[C@@H](C)CC)[C@@H](C)CC)[C@@H](C)CC)[C@@H](C)O)[C@@H](C)CC)[C@@H](C)O)C(N)=O)C(=O)O` [Compound 17]: the results for the maximal effect (Emax) at human GIPR, at human GLP-2R and on human GLP-1R were 97%, 92% and 107%, respectively.
